# According to paper PMC9025555, “Chiral Recognition R- and RS- of New Antifungal: Complexation/Solubilization/Dissolution Thermodynamics and Permeability Assay” (Pharmaceutics, 2022):
# Several values for one entry are separate records, joined by “and”; a condition that tells them apart may be missing. Identical values can stand only once.
# Legend:
# [1] = Phase solubility study (shake-flask) in buffers with 2-HP-β-CD; conditions: for order of the solubility: compared with reported FCZ and L-173
# Description: An excess amount of the substance was placed in the glass screw-capped vials with the solvent. The vials were stirred in an air thermostat for a certain period of time (a period of 3 days was estimated to be enough for reaching the equilibrium between the solid and the solvent). Then, the saturated solutions were kept in a thermostat in mild conditions no less than 12 h and thereafter centrifuged at a fixed temperature (Biofuge pico, Thermo Electron LED GmbH, Langenselbold, Germany) for 10 min at 12,000 rpm. […] The experimental results were reported as an average of at least three replicated experiments. Temperature uncertainty was ±0.1 K. The sensitivity of UV spectroscopic determinations was characterized by the values of the limit of detection (LOD)/limit of quantification (LOQ).
# [2] = Complexation parameters with 2-HP-β-CD from phase-solubility diagrams; type: physicochemical; conditions: for increase of the complex stability as compared to L-173: acidic buffer; for Complexation efficiency (CE) / apparent stability constant (KCS): 2-HP-β-CD
# Description: Thermodynamic functions of the complexation process were determined from the phase solubility diagrams following Higuchi and Connors. The linear AL-type phase-solubility diagrams evidenced the complexes of the first order in respect to cyclodextrin. The equilibrium of the complex formation with 1:1 stoichiometry in the cyclodextrin solution can be described in the following manner:(1) D+CD↔KCD⋅CD where D is the drug molecule, CD is the cyclodextrin molecule, and D·CD is drug/cyclodextrin complex. Respectively, the complexation constant ( KC ) can be expressed by the equation:(2) KC=[D⋅CD]/[D][CD] where [D·CD] is the complex concentration, [CD] is the cyclodextrin concentration, and [D] is the drug concentration. A plot of total solubility ( S2 expressed in molarity—M) in the presence of CD versus CD concentration ( CCD ) (a phase-solubility profile) gives a straight line with a slope equal to (KCS⋅S20/(1+KCS⋅S20)) and intercept equal to S20 from which the apparent stability constants ( KCS ) were estimated via Higuchi–Connors equation [15]:(3) KCS=slope/S20⋅(1−slope), where S20 is the intrinsic solubility of the drug at designated pH in the absence of CD and the slope is the corresponding slope of the phase-solubility diagram.
# From CE, the (D:CD) ratio can be derived, which is useful for the estimation of the solubility improvement in CD solutions. Using the CE value, the molar ratio (Drug:CD) was determined:(5) Drug:CD=1:(1+1/CE)
# in vitro = in vitro ADME
# Description: Permeability coefficients of RS-186 and R-98 were measured through the PermeaPad barrier (PHABIOC, Germany, Espelkamp, www.permeapad.com, accessed on 20 May 2021) of an effective surface area of 0.785 cm^2 in a vertical type of Franz diffusion cell (PermeGear, Inc., Hellertown, PA, USA) with 7 mL volume. PermeaPad is a biomimetic membrane proposed by di Cagno and Bauer-Brandl for the fast screening of the permeability of the marketed drugs and drug-like compounds. In brief, the barrier was mounted between the donor and receptor chambers. The donor chamber was filled with a stock solution of the investigated substance in buffer solution at pH 2.0 or pH 7.4 and was stirred vigorously during the permeability experiment. The receptor compartment contained 1 mL of the respective fresh buffer. The system was thermostated at 310.15 ± 0.1 K. A probe of 0.5 mL was withdrawn every 30 min from the receptor chamber and replaced with an equal amount of the respective fresh buffer. The permeation process followed the reverse dialysis. The withdrawn samples were analyzed in 96-well UV black plate (Costar) via spectrophotometer (Spectramax 190; Molecular devices, Molecular Devices Corporation, California, CA, USA) at the appropriate wavelength. The permeation profiles were plotted as the amount of the permeated drug over the surface area ( dQ/A ) versus the time ( t ). The flux ( J ) was calculated as a slope of permeation profiles according to the equation:(6) J=dQ/A×dt
# The apparent permeability coefficient ( Papp ) was calculated by normalizing the flux measured over the concentration of the drug in the donor compartment ( C0 ), as described by the equation:(7) Papp=J/Co
# Each permeability experiment was repeated at least 3 times and the average value of Papp was determined.
smiles,measurement,setting,value
"O=C1S/C(=C\c2ccc(Cl)cc2)C(=O)N1CC(O)CN1CCN(CC(O)(Cn2cncn2)c2ccc(F)cc2F)CC1 (centres unmarked) [RS-186, (Z)-5-(4-chlorobenzylidene)-3-(3-(4-(2-(2,4-difluorophenyl)-2-hydroxy-3-(1H-1,2,4-triazol-1-yl)propyl)piperazin-1-yl)-2-hydroxypropyl)thiazolidine-2,4-dione]",effect of CD on the solubility (enhancement),"[1]; acidic buffer, 298.15 K",28 fold
same,effect of CD on the solubility (enhancement),"[1]; buffer pH 7.4, 298.15 K",148 fold
same,Experimental solubility (S2),"[1]; pH 2.0, 298.15 K, 2-HP-β-CD 0 M, S2 10^3/M",0.50 ± 0.01 10^3/M
same,Experimental solubility (S2),"[1]; pH 2.0, 298.15 K, 2-HP-β-CD 0.01 M, S2 10^3/M",3.37 ± 0.08 10^3/M
same,Experimental solubility (S2),"[1]; pH 2.0, 298.15 K, 2-HP-β-CD 0.03 M, S2 10^3/M",8.10 ± 0.22 10^3/M
same,Experimental solubility (S2),"[1]; pH 2.0, 298.15 K, 2-HP-β-CD 0.04 M, S2 10^3/M",10.90 ± 0.31 10^3/M
same,Experimental solubility (S2),"[1]; pH 2.0, 298.15 K, 2-HP-β-CD 0.05 M, S2 10^3/M",13.80 ± 0.40 10^3/M
same,Experimental solubility (S2),"[1]; pH 2.0, 303.15 K, 2-HP-β-CD 0 M, S2 10^3/M",0.54 ± 0.01 10^3/M
same,Experimental solubility (S2),"[1]; pH 2.0, 303.15 K, 2-HP-β-CD 0.01 M, S2 10^3/M",3.40 ± 0.04 10^3/M
same,Experimental solubility (S2),"[1]; pH 2.0, 303.15 K, 2-HP-β-CD 0.03 M, S2 10^3/M",8.37 ± 0.18 10^3/M
same,Experimental solubility (S2),"[1]; pH 2.0, 303.15 K, 2-HP-β-CD 0.04 M, S2 10^3/M",11.20 ± 0.19 10^3/M
same,Experimental solubility (S2),"[1]; pH 2.0, 303.15 K, 2-HP-β-CD 0.05 M, S2 10^3/M",14.20 ± 0.22 10^3/M
same,Experimental solubility (S2),"[1]; pH 2.0, 310.15 K, 2-HP-β-CD 0 M, S2 10^3/M",0.61 ± 0.02 10^3/M
same,Experimental solubility (S2),"[1]; pH 2.0, 310.15 K, 2-HP-β-CD 0.01 M, S2 10^3/M",3.64 ± 0.04 10^3/M
same,Experimental solubility (S2),"[1]; pH 2.0, 310.15 K, 2-HP-β-CD 0.03 M, S2 10^3/M",8.68 ± 0.19 10^3/M
same,Experimental solubility (S2),"[1]; pH 2.0, 310.15 K, 2-HP-β-CD 0.04 M, S2 10^3/M",11.79 ± 0.33 10^3/M
same,Experimental solubility (S2),"[1]; pH 2.0, 310.15 K, 2-HP-β-CD 0.05 M, S2 10^3/M",14.88 ± 0.24 10^3/M
same,Experimental solubility (S2),"[1]; pH 2.0, 313.15 K, 2-HP-β-CD 0 M, S2 10^3/M",0.69 ± 0.02 10^3/M
same,Experimental solubility (S2),"[1]; pH 2.0, 313.15 K, 2-HP-β-CD 0.01 M, S2 10^3/M",3.97 ± 0.03 10^3/M
same,Experimental solubility (S2),"[1]; pH 2.0, 313.15 K, 2-HP-β-CD 0.03 M, S2 10^3/M",9.30 ± 0.31 10^3/M
same,Experimental solubility (S2),"[1]; pH 2.0, 313.15 K, 2-HP-β-CD 0.04 M, S2 10^3/M",12.90 ± 0.33 10^3/M
same,Experimental solubility (S2),"[1]; pH 2.0, 313.15 K, 2-HP-β-CD 0.05 M, S2 10^3/M",15.90 ± 0.40 10^3/M
same,order of the solubility,[1]; pH 2.0,(FCZ) > (RS-186 ≥ R-98) > (L-173)
same,solubility in pure buffer solution,[1]; pH 2.0,500 µM
same,solubility of RS-186 greater than R-98,[1]; pH 7.4,1.5 fold
same,Experimental solubility (S2),"[1]; pH 7.4, 298.15 K, 2-HP-β-CD 0 M, S2 10^4/M",0.27 ± 0.01 10^4/M
same,Experimental solubility (S2),"[1]; pH 7.4, 298.15 K, 2-HP-β-CD 0.01 M, S2 10^4/M",3.15 ± 0.02 10^4/M
same,Experimental solubility (S2),"[1]; pH 7.4, 298.15 K, 2-HP-β-CD 0.03 M, S2 10^4/M",20.00 ± 0.32 10^4/M
same,Experimental solubility (S2),"[1]; pH 7.4, 298.15 K, 2-HP-β-CD 0.04 M, S2 10^4/M",30.70 ± 0.51 10^4/M
same,Experimental solubility (S2),"[1]; pH 7.4, 298.15 K, 2-HP-β-CD 0.05 M, S2 10^4/M",40.20 ± 0.58 10^4/M
same,Experimental solubility (S2),"[1]; pH 7.4, 303.15 K, 2-HP-β-CD 0 M, S2 10^4/M",0.30 ± 0.01 10^4/M
same,Experimental solubility (S2),"[1]; pH 7.4, 303.15 K, 2-HP-β-CD 0.01 M, S2 10^4/M",2.74 ± 0.03 10^4/M
same,Experimental solubility (S2),"[1]; pH 7.4, 303.15 K, 2-HP-β-CD 0.03 M, S2 10^4/M",10.60 ± 0.33 10^4/M
same,Experimental solubility (S2),"[1]; pH 7.4, 303.15 K, 2-HP-β-CD 0.04 M, S2 10^4/M",15.60 ± 0.41 10^4/M
same,Experimental solubility (S2),"[1]; pH 7.4, 303.15 K, 2-HP-β-CD 0.05 M, S2 10^4/M",20.10 ± 0.21 10^4/M
same,Experimental solubility (S2),"[1]; pH 7.4, 310.15 K, 2-HP-β-CD 0 M, S2 10^4/M",0.35 ± 0.01 10^4/M
same,Experimental solubility (S2),"[1]; pH 7.4, 310.15 K, 2-HP-β-CD 0.01 M, S2 10^4/M",1.93 ± 0.03 10^4/M
same,Experimental solubility (S2),"[1]; pH 7.4, 310.15 K, 2-HP-β-CD 0.03 M, S2 10^4/M",5.01 ± 0.05 10^4/M
same,Experimental solubility (S2),"[1]; pH 7.4, 310.15 K, 2-HP-β-CD 0.04 M, S2 10^4/M",6.97 ± 0.08 10^4/M
same,Experimental solubility (S2),"[1]; pH 7.4, 310.15 K, 2-HP-β-CD 0.05 M, S2 10^4/M",8.58 ± 0.08 10^4/M
same,Experimental solubility (S2),"[1]; pH 7.4, 313.15 K, 2-HP-β-CD 0 M, S2 10^4/M",0.37 ± 0.01 10^4/M
same,Experimental solubility (S2),"[1]; pH 7.4, 313.15 K, 2-HP-β-CD 0.01 M, S2 10^4/M",1.37 ± 0.06 10^4/M
same,Experimental solubility (S2),"[1]; pH 7.4, 313.15 K, 2-HP-β-CD 0.03 M, S2 10^4/M",2.50 ± 0.03 10^4/M
same,Experimental solubility (S2),"[1]; pH 7.4, 313.15 K, 2-HP-β-CD 0.04 M, S2 10^4/M",3.20 ± 0.05 10^4/M
same,Experimental solubility (S2),"[1]; pH 7.4, 313.15 K, 2-HP-β-CD 0.05 M, S2 10^4/M",3.65 ± 0.05 10^4/M
same,order of the solubility,[1]; pH 7.4,(FCZ) > (R-98 ≥ RS-186) >> (L-173)
same,solubility in pure buffer solution,[1]; pH 7.4,27 µM
same,increase of the complex stability as compared to L-173,[2]; 298.15 K,~2.8 fold
same,increase of the complex stability as compared to L-173,[2]; 315.15 K,~1.8 fold
same,Complexation efficiency (CE),"[2]; pH 2.0, 298.15 K",35.4%
same,apparent stability constant (KCS),"[2]; pH 2.0, 298.15 K",708.9 M⁻¹ and 708.9 ± 71.4 M⁻¹
same,Complexation efficiency (CE),"[2]; pH 2.0, 303.15 K",36.9%
same,apparent stability constant (KCS),"[2]; pH 2.0, 303.15 K",688.0 ± 60.3 M⁻¹
same,Complexation efficiency (CE),"[2]; pH 2.0, 310.15 K",39.1%
same,apparent stability constant (KCS),"[2]; pH 2.0, 310.15 K",646.7 ± 61.5 M⁻¹
same,Complexation efficiency (CE),"[2]; pH 2.0, 313.15 K",43.2%
same,apparent stability constant (KCS),"[2]; pH 2.0, 313.15 K",623.6 ± 60.0 M⁻¹
same,"ability for complex formation with CD, racemic compound as compared to R-isomer",[2]; pH 2.0 stability constants (Table 2),1.3 fold
same,CE decrease with the temperature growth,[2]; pH 7.4,17 fold
same,Complexation efficiency (CE),"[2]; pH 7.4, 298.15 K",10.3%
same,Complexation efficiency (CE),"[2]; pH 7.4, 303.15 K",4.6%
same,Complexation efficiency (CE),"[2]; pH 7.4, 310.15 K",1.7%
same,Complexation efficiency (CE),"[2]; pH 7.4, 313.15 K",0.6%
same,permeability decrease up to 0.03 M concentration of CD in donor solution,in vitro; buffer pH 7.4,8.89 fold
same,permeability classification (developers of PermeaPad),in vitro; in the presence of 0.01 M CD,low
same,permeability reduction up to 0.03 M concentration of CD in donor solution,in vitro; pH 2.0,8.72 fold
same,Permeability Coefficient (Papp),"in vitro; pH 2.0, CD 0.01087 M, 310.15 K",(1.12 ± 0.09) × 10^−6 cm·s^−1
same,permeability classification (developers of PermeaPad),"in vitro; pure buffers, classification of ref 18",medium permeable
